Experiments:
[1] = system: hexokinase; assay: Hexokinase activity in extracts of wild type yeast cells; format: biochemical, S. cerevisiae; conditions: 50 µM; variable glucose / 5 mM ATP and variable ATP / 5 mM glucose
Procedure: In vitro hexokinase activity of yeast cells was determined as described previously ([44], [76]). As such, the yeast cells were first grown to exponential phase on Complete Synthetic medium supplemented with 110 mM galactose. The cells were harvested and washed with ice-cold 25 mM MES buffer pH 6. Subsequently, cells were resuspended in lysis buffer (50 mM HEPES pH 7, 150 mM NaCl, 2.5 mM MgCl2, 5% glycerol and 1% Triton X-100) containing protease inhibitor after which the yeast cells were mechanically lysed. After protein level determination, total protein concentration was diluted to 0.1 mg/mL in reaction buffer (50 mM HEPES pH 7, 150 mM NaCl, 2.5 mM MgCl2, 5% glycerol). For measuring activity, reaction buffer was supplemented with 1.07 mM NADP^+ and 10 U/mL Glu6P dehydrogenase (Sigma-Aldrich G7877). After temperature equilibration of the plate at 30°C, the reaction was started by adding both ATP and glucose to the reaction buffer. OD340 was measured using the Synergy H1 Hybrid reader and hexokinase activity was determined based on the linear increase of absorbance in the first 10-20 s.

[2] = system: untransformed MCF10A cell line; assay: Growth and apoptosis of untransformed MCF10A cells (IncuCyte); format: cell-based, human; conditions: 1 mM glucose, 25 µM

SMILES | effect on in vitro hexokinase activity [1] | induction of apoptosis [2]
Cc1nc(Sc2nnc3n2CCCCC3)c2c(-c3cccs3)csc2n1 [WBC-A] | No significant effect | –
Cc1nc(SCC(=O)c2ccc3c(c2)NC(=O)CO3)c2c(-c3cccs3)csc2n1 [WBC-11C] | – | induces apoptosis

From paper PMC11374660, “The novel family of Warbicin® compounds inhibits glucose uptake both in yeast and human cells and restrains cancer cell proliferation” (Frontiers in Oncology, 2024)
